Measurements reported in patent US10710988B2, “Piperazine derivative” (Astellas Pharma Inc., priority 2016, dated 2020).
Where a name gives a salt, the structure may show the parent alone.

Legend:
Assay type in all cases: cell-based
human MC4 receptor = biological target: T1, human MC4 receptor (Homo sapiens, UniProt P32245); experiment: Human MC4 receptor activation, cAMP production in cells transiently expressing the receptor; conditions: FreeStyle 293-F cells expressing human MC4 receptor, α-MSH maximum = 100%
T1 construct: expressed in transfected cells; host or cells: FreeStyle 293-F cells (transient, electroporation)
Excerpt: (§1) (1) Construction of Human MC Receptor-Expressing Vector
(§2) A human MC4 receptor gene (GenBank Accession No.: NM_005912.2), a human MC1 receptor gene (GenBank Accession No.: NM_002386.3), or a human MC3 receptor gene (GenBank Accession No.: NM_019888.3) was introduced into an expression vector pcDNA™ 3.1N/V5-His TOPO (registered trademark) (Thermo Fisher Scientific Inc).
(§3) (2) Construction of Cells Transiently Expressing Human MC Receptor
(§4) An expression vector for a human MC4, MC1, or MC3 receptor was introduced into FreeStyle™ 293-F cells (Thermo Fisher Scientific Inc., product number: R790-07). For the introduction, electroporation was employed. That is, 1×10^7 FreeStyle™ 293-F cells were suspended in 80 μL of an Electroporation Buffer (Thermo Fisher Scientific Inc., product number: B201-100), and 20 μg of the expression vector was added thereto. The resultant was put into a cuvette (OC-100 Processing Assembly, MaxCyte, Inc.) and electroporated with MaxCyte STX (registered trademark) (MaxCyte, Inc.). The cells were cultured for a day, suspended in a Cell Banker (registered trademark) 1 (TAKARA BIO INC. or JUJI FIELD Inc., product number: BLC-1), and stored frozen until they were used.
(§5) (3) Measurement of Amount of cAMP Production
(§6) Measurement was carried out by using a LANCE (registered trademark) Ultra cAMP Kit (PerkinElmer, Inc.) in accordance with the attached instructions. That is, after dissolution in DMSO, the test compound (a final concentration of 1 pM to 30 μM) diluted with an assay buffer (Hank's balanced salt solution, 5 mM 4-(2-hydroxyethyl)-1-piperazineethanesulfonic acid (HEPES), 0.5 mM 3-isobutyl-1-methylxanthine (IBMX), 0.1% bovine serum albumin, pH 7.4), or α-MSH (Bachem Inc., a final concentration of 1 pM to 30 μM) was added to OptiPlate-384 (PerkinElmer, Inc.). Furthermore, the suspension of the cells transiently expressing the human MC4, MC1, or MC3 receptor prepared using the assay buffer was added thereto at 1,000 cells/well, and then left to stand at room temperature for about 1 hour. Thereafter, an Eu-cAMP tracer solution and an ULight™-anti-cAMP solution were added thereto, and then the resulting solution was left to stand at room temperature for about 1 hour. The amount of cAMP was calculated using EnVision (registered trademark) (PerkinElmer Inc.).
(§7) For the agonistic activity, the efficacy (EC50 (μM)) was calculated by a non-linear regression method with a Sigmoid-Emax model, by defining the maximum reaction using α-MSH as 100% and the reaction using the vehicle alone as 0%, respectively.

human MC1 receptor = biological target: T2, human MC1 receptor (Homo sapiens, UniProt Q01726); experiment: Human MC1 receptor activation, cAMP production in cells transiently expressing the receptor; conditions: FreeStyle 293-F cells expressing human MC1 receptor, α-MSH maximum = 100%
T2 construct: expressed in transfected cells; host or cells: FreeStyle 293-F cells (transient, electroporation)
Excerpt: as §1, §2, §3, §4, §5, §6, §7

human MC3 receptor = biological target: T3, human MC3 receptor (Homo sapiens, UniProt P41968); experiment: Human MC3 receptor activation, cAMP production in cells transiently expressing the receptor; conditions: FreeStyle 293-F cells expressing human MC3 receptor, α-MSH maximum = 100%
T3 construct: expressed in transfected cells; host or cells: FreeStyle 293-F cells (transient, electroporation)
Excerpt: as §1, §2, §3, §4, §5, §6, §7

rat MC4 receptor = biological target: T4, rat MC4 receptor (Rattus norvegicus, UniProt P70596); experiment: Rat MC4 receptor activation, cAMP production in cells transiently expressing the receptor; conditions: FreeStyle 293-F cells expressing rat MC4 receptor, α-MSH maximum = 100%
T4 construct: expressed in transfected cells; host or cells: FreeStyle 293-F cells (transient, electroporation)
Excerpt: (1) Construction of Rat MC4 Receptor-Expressing Vector
A rat MC4 receptor gene (GenBank Accession No.: NM_013099.3) was introduced into an expression vector pcDNA™ 3.1N/V5-His TOPO (registered trademark) (Thermo Fisher Scientific Inc.).
(2) Construction of Cells Transiently Expressing Rat MC4 Receptor
as §4, with “rat MC4” for “human MC4, MC1, or MC3”, “Inc.).” for “Inc., product number: R790-07).”, “electroporation buffer” for “Electroporation Buffer”, “Inc.),” for “Inc., product number: B201-100),”, “Inc.),” for “Inc., product number: BLC-1),”
as §5
Measurement was carried out in accordance with the attached instructions, using a LANCE (registered trademark) Ultra cAMP Kit (PerkinElmer, Inc.). That is, after dissolution in DMSO, the test compound (a final concentration of 1 pM to 30 μM) diluted with an assay buffer (Hank's balanced salt solution, 5 mM HEPES, 0.5 mM IBMX, 0.1% bovine serum albumin, pH 7.4), or α-MSH (Bachem Inc., a final concentration of 1 pM to 30 μM) was added to OptiPlate-384 (PerkinElmer, Inc.). Furthermore, the suspension of the cells transiently expressing the rat MC receptor that was prepared using the assay buffer was added thereto at 1,000 cells/well, and then left to stand at room temperature for about 1 hour. Thereafter, an Eu-cAMP tracer solution and an ULight™-anti-cAMP solution were added thereto, and the resulting solution was left to stand at room temperature for about 1 hour. The amount of cAMP was calculated using EnVision (registered trademark) (PerkinElmer Inc).
For the agonistic activity, an efficacy (EC50 (μM)) was calculated by a non-linear regression method with a Sigmoid-Emax model, by defining the maximum reaction using α-MSH as 100% and the reaction using a vehicle alone as 0%, respectively.

T2 sequence (Q01726 whole entry): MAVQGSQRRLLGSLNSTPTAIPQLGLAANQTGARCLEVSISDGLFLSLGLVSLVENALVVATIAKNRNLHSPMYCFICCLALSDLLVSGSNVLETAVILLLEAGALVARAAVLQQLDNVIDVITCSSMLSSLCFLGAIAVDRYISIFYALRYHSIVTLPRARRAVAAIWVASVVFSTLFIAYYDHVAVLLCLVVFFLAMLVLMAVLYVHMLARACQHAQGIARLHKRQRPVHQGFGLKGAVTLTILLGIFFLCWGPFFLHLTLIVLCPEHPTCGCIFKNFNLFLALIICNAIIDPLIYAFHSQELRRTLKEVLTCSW
T1 sequence (P32245 whole entry): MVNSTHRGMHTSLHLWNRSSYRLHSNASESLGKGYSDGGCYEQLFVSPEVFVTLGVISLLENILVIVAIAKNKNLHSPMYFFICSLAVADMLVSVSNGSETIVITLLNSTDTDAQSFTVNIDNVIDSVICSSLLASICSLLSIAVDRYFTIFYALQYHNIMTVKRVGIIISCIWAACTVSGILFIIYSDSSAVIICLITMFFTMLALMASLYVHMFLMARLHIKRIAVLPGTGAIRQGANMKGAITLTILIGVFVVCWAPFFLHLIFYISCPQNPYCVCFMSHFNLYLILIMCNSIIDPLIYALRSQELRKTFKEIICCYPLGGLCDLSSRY
T4 sequence (P70596 whole entry): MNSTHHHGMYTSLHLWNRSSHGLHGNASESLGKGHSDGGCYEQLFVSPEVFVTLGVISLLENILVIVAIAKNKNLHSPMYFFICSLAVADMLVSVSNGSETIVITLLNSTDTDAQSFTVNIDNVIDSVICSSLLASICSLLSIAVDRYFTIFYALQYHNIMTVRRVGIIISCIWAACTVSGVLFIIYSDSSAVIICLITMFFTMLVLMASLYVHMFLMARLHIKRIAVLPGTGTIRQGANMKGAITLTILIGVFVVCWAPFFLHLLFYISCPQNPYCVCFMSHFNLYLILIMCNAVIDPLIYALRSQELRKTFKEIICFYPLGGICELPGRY
T3 sequence (P41968 whole entry): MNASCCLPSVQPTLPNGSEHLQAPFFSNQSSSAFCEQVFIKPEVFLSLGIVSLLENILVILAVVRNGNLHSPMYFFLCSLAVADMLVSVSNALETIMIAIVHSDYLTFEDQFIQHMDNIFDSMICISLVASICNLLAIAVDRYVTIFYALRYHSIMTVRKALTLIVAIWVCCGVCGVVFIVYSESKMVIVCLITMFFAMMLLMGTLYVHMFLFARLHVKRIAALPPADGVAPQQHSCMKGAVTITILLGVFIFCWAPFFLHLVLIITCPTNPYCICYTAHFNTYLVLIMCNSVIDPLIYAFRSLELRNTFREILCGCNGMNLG

Compound | EC50 (human MC4 receptor) [nM] | EC50 (human MC1 receptor) [nM] | EC50 (human MC3 receptor) [nM] | EC50 (rat MC4 receptor) [nM]
CC(=O)N[C@@H](Cc1ccc(Cl)cc1)C(=O)N1CCN(C(=O)[C@@H]2CN(C(C)(C)C)C[C@H]2c2ccc(F)cc2F)[C@@H](C)C1 [Example 7] | 77 | 680 | 4400 | 15
C[C@H]1CN(C(=O)[C@@H](NC(=O)C2CC2)C2CCCCC2)CCN1C(=O)[C@@H]1CN(C(C)(C)C)C[C@H]1c1ccc(F)cc1F [Example 9] | 89 | – | – | –
CC(=O)N[C@H](C(=O)N1CCN(C(=O)[C@@H]2CN(C(C)(C)C)C[C@H]2c2ccc(F)cc2F)[C@@H](C)C1)C1CCCC1 [Example 15] | 220 | – | – | –
CC(=O)N[C@@H](CC1CCC(C)(C)CC1)C(=O)N1CCN(C(=O)[C@@H]2CN(C(C)(C)C)C[C@H]2c2ccc(F)cc2F)[C@@H](C)C1 [Example 18, N-[(2S)-1-[(3S)-4-{[(3 S,4R)-1-tert-butyl-4-(2,4-difluorophenyl)pyrrolidin-3-yl]carbonyl}-3-methylpiperazin-1-yl]-3-(4,4-dimethylcyclohexyl)-1-oxopropan-2-yl]acetamide monohydrochloride] | 62 | – | – | –
CC(=O)N[C@@H](CC1CCC(F)(F)CC1)C(=O)N1CCN(C(=O)[C@@H]2CN(C(C)(C)C)C[C@H]2c2ccc(F)cc2F)[C@@H](C)C1 [Example 19] | 380 | – | – | –
CCC(=O)N[C@@H](CC(C)(C)C)C(=O)N1CCN(C(=O)[C@@H]2CN(C3CCOCC3)C[C@H]2c2ccc(Cl)cc2F)[C@@H](C)C1 [Example 21] | 130 | – | – | –
CC(=O)N[C@@H](Cc1ccccc1Cl)C(=O)N1CCN(C(=O)C2CN(C(C)(C)C)CC2c2cc(F)c(Cl)c(F)c2)[C@@H](C)C1 (stereo partly shown) [Example 22] | 180 | – | – | –
CC(=O)N[C@@H](CC(C)(C)C)C(=O)N1CCN(C(=O)[C@@H]2CN(C(C)C)C[C@H]2c2ccc(F)cc2F)[C@@H](C)C1 [Example 24, N-{(2S)-1-[(3S)-4-{[(3S,4R)-4-(2,4-difluorophenyl)-1-isopropylpyrrolidin-3-yl]carbonyl}-3-methylpiperazin-1-yl]-4,4-dimethyl-1-oxopentan-2-yl}acetamide monohydrochloride] | 78 | 1500 | 6400 | 46
CC(=O)N[C@@H](CC(C)(C)C)C(=O)N1CCN(C(=O)[C@@H]2CN(C3CCCCC3)C[C@H]2c2ccc(F)cc2F)[C@@H](C)C1 [Example 25] | 120 | – | – | –
CC(=O)N[C@@H](CC(C)(C)C)C(=O)N1CCN(C(=O)[C@@H]2CN(C)C[C@H]2c2ccc(F)cc2F)[C@@H](C)C1 [Example 26] | 5000 | – | – | –
CC(=O)N[C@@H](CC(C)(C)C)C(=O)N1CCN(C(=O)[C@@H]2CN(CC3CC3)C[C@H]2c2ccc(F)cc2F)[C@@H](C)C1 [Example 27] | 1000 | – | – | –
CC(C)C[C@H](NS(C)(=O)=O)C(=O)N1CCN(C(=O)[C@@H]2CN(C3CCOCC3)C[C@H]2c2ccc(Cl)cc2F)[C@@H](C)C1 [Example 29, N-{(2S)-1-[(3S)-4-{[(3S,4R)-4-(4-chloro-2-fluorophenyl)-1-(tetrahydro-2H-pyran-4-yl)pyrrolidin-3-yl]carbonyl}-3-methylpiperazin-1-yl]-4-methyl-1-oxopentan-2-yl}methanesulfonamide monohydrochloride] | 280 | – | – | –
C[C@H]1CN(C(=O)[C@@H](N)C2CCCCC2)CCN1C(=O)[C@@H]1CN(C(C)(C)C)C[C@H]1c1ccc(F)cc1F [Example 30, (2S)-2-amino-1-[(3S)-4-{[(3S,4R)-1-tert-butyl-4-(2,4-difluorophenyl)pyrrolidin-3-yl]carbonyl}-3-methylpiperazin-1-yl]-2-cyclohexylethanone dihydrochloride] | 1800 | – | – | –

These reach a lower EC50 (human MC4 receptor). Values come first.

EC50 (human MC4 receptor) [nM] | EC50 (human MC1 receptor) [nM] | EC50 (human MC3 receptor) [nM] | EC50 (rat MC4 receptor) [nM] | Compound
12 | – | – | – | CC(=O)N(C)[C@H](C(=O)N1CCN(C(=O)[C@@H]2CN(C(C)(C)C)C[C@H]2c2ccc(F)cc2F)[C@@H](C)C1)C1CCCCC1 [Example 10]
14 | – | – | – | COC[C@H]1CN(C(=O)[C@H](CC(C)C)NC(C)=O)CCN1C(=O)C1CN(C(C)(C)C)CC1c1ccc(Br)cc1F (stereo partly shown) [Example 12]
34 | – | – | – | CCC(=O)N[C@@H](CC(C)(C)C)C(=O)N1CCN(C(=O)[C@@H]2CN(C3CCOCC3)C[C@H]2c2ccc(Cl)cc2F)CC12CC2 [Example 13]
40 | – | – | – | CC(=O)N[C@@H](Cc1cccc(F)c1)C(=O)N1CCN(C(=O)[C@@H]2CN(C(C)(C)C)C[C@H]2c2ccc(F)cc2F)[C@@H](C)C1 [Example 17]
23 | 870 | 450 | 4.8 | CC(=O)N[C@@H](CC(C)(C)C)C(=O)N1CCN(C(=O)C2CN(C(C)(C)C)CC2c2ccc(Cl)cn2)[C@@H](C)C1 (stereo partly shown) [Example 23]
5.5 | – | – | – | C[C@H]1CN(C(=O)[C@H](Cc2ccccc2Cl)N(C)C)CCN1C(=O)[C@@H]1CN(C(C)(C)C)C[C@H]1c1ccc(F)cc1F [Example 28, (2S)-1-[(3S)-4-{[(3 S,4R)-1-tert-butyl-4-(2,4-difluorophenyl)pyrrolidin-3-yl]carbonyl}-3-methylpiperazin-1-yl]-3-(2-chlorophenyl)-2-(dimethylamino)propan-1-one dihydrochloride]
